# Measured values reported in patent publication US8283323B2, “Withanolide compounds as inhibitors of fibrosis and identification of molecular targets for anti-fibrotic drug development” (University of Kentucky Research Foundation, priority 2006, dated 2012).
# Key:
# transketolase (TKT) = experiment: western blot with anti-mouse TKT antibody and immunohistochemical analysis of mouse eyes; format: in vivo, mice; conditions: injured corneas; for TKT detected by anti-mouse TKT antibody on western blot (longer film exposure): WA 2.5 mg/kg/d or epoxomicin 2.0 mg/kg/d, not detected in vehicle
# Protocol: (§1) To investigate the levels and timing of expression of TKT we performed time-course experiments using the angioinflammation corneal model of tissue repair. Groups of mice ([…]) were injured and treated every day with vehicle (Veh), 2.5 mg/kg/d WA or 2.0 mg/kg/d epoxomicin (20S proteasome inhibitor) and sacrificed on day 4 and 6 post-inflammation. In a similar experiment, mice were treated every day with vehicle or 2.5 mg/kg/d WA and sacrificed on days 3 and 5 post-injury. Equal amounts of protein from pooled samples of each group were subjected to immunoblotting or Coomassie blue staining after fractionation on 4-20% gradient polyacrylamide gels (BioRad).
# (§2) The western blots of the corneal samples were re-probed with an anti-mouse TKT antibody. […] Because of the strong Ub-immunoreactivity of TKT in injured corneas, we speculate that this protein's N-terminal antigenic site is being masked by ubiquitination in the injury-related samples (the TKT antibody reacts with the N-terminal 20-amino acid portion of native TKT).
# To investigate the localization of TKT, immunohistochemical analysis of mouse eyes was conducted. TKT expression is localized to the epithelium of uninjured mouse eyes, whereas TKT expression in corneas of 4 d vehicle-treated mice is almost undetectable.
# HO-1 = experiment: western blotting of corneal buttons from injured healing corneas: HO-1; format: in vivo, mice; conditions: i.p. daily for first 4 days, corneas taken day 7, western blot
# Protocol: (§3) The corneas of C57BL6 mice under anesthesia were injured by application of 0.1 N sodium hydroxide and subsequently the epithelial cell layer from the cornea and limbus was removed by scraping. Withaferin A (WA) (2.5 mg/kg/d; 4 mice) or vehicle (DMSO; 4 mice) was provided daily thereafter by i.p. injection for 6 d. Digital images of the corneas were obtained to assess the extent of tissue pathology. […] These compelling results invoke the query whether WA targets the UPP in vivo. Mice (4 per group) were injured and treated for the first 4 days with a different dose of WA or vehicle daily by i.p. injection. On day 7, mice were sacrificed and corneal buttons were isolated from injured healing corneas; equal amounts of protein from each group were analyzed by western blotting. Uninjured fellow eyes from vehicle-treated mice served as controls.
# native I-kappa-B-alpha = experiment: western blotting of corneal buttons from injured healing corneas: I-kappa-B-alpha; format: in vivo, mice; conditions: different doses i.p. daily for first 4 days, corneas taken day 7, western blot
# Protocol: as §3
# [1] = test system: ubiquitin proteasome pathway (UPP); experiment: UPP functions in the alkali burn injury model of corneal angiofibrotic disease; format: in vivo
# Source text: The abundant corneal protein tissue transketolase (TKT) is believed to play an important role in corneal homeostasis. TKT is also a target of the UPP and its reduced expression is believed to contribute to corneal fibrosis. In the present invention, targeting the UPP in injured tissue can redirect the fibrotic repair process to acquire regenerative healing. Withanolides and related compounds, such as withaferin A, withanolide D and ixocarpalactone, are small molecule inhibitors that have potent UPP-targeting activity. […] There is also a reduction in the levels of ubiquitinated transketolase (TKT), an abundant corneal protein implicated in fibrogenesis.
# [2] = test system: ubiquitinated transketolase (70 kDa ubiquitinated protein); experiment: immunoblotting / Coomassie blue staining of corneal protein, angioinflammation corneal model: ubiquitinated transketolase; format: in vivo, mice
# Protocol: as §1, §2
# [3] = test system: cornea injured by 0.1 N sodium hydroxide (corneal opacity, neovascularization); experiment: alkali burn corneal injury model, digital images of corneas; format: in vivo, C57BL6 mice; conditions: 2.5 mg/kg/d i.p. daily for 6 d after alkali burn, versus vehicle (DMSO)
# Protocol: as §3
SMILES,TKT detected by anti-mouse TKT antibody on western blot (longer film exposure) (transketolase (TKT)),"TKT staining in cornea, immunohistochemical analysis (transketolase (TKT); 4 d, compared with uninjured and vehicle-treated)",HO-1 expression in cornea (HO-1),corneal expression of native I-kappa-B-alpha (native I-kappa-B-alpha),UPP functions [1],"expression of 70 kDa ubiquitinated protein (UbTKT) in cornea, ubiquitin immunoblot ([2]; 2.5 mg/kg/d every day, injured corneas, versus vehicle)","levels of the 70 kDa protein by Coomassie blue staining ([2]; uninjured, vehicle and WA-treated samples, 3-, 5-, 4- and 6-day time-points)",corneal opacity [3],neovascularization (growth of new blood vessels in cornea) [3]
"CC[C@H](C)[C@H](NC(=O)[C@H]([C@@H](C)CC)N(C)C(C)=O)C(=O)N[C@H](C(=O)N[C@@H](CC(C)C)C(=O)[C@@]1(C)CO1)[C@@H](C)O [epoxomicin, reference compound]",presence of the TKT,–,–,–,–,–,–,–,–
"CC1=C(CO)C(=O)O[C@@H]([C@@H](C)[C@H]2CC[C@H]3[C@@H]4C[C@H]5O[C@]56[C@@H](O)C=CC(=O)[C@]6(C)[C@H]4CC[C@]23C)C1 [WA, Withaferin A]",presence of the TKT,"present, although at levels lower than that of uninjured cornea",potently downregulated HO-1 expression to almost undetectable levels,dose-dependently inhibits,potent downregulation,abundantly expressed in vehicle-treated mouse corneas compared to corneas from WA-treated mice,not significantly altered,dramatically reduced,dramatically reduced
